Test results reported in patent publication US20220313640A1 (Concert Pharmaceuticals, Inc., priority 2019, published 2022).
Where two headings read alike, the source gives them in different places.

Legend:
[1] = Pharmacokinetic profile of Compound 100 versus non-deuterated D-serine in male Sprague-Dawley rats, 150 mg/kg PO; type: in vivo; details: fasted, plasma, mean
Text: (§1) The pharmacokinetic profile of Compound 100 was investigated in male Sprague-Dawley rats compared with that of non-deuterated D-serine. […] Plasma was collected and analyzed for Compound 100 and non-deuterated D-Serine. Additional blood was collected and analyzed for the full clinical chemistry profile.

[2] = Pharmacokinetics of non-deuterated D-serine in male Sprague-Dawley rats, 300 mg/kg PO; type: in vivo; details: rat, mean
Description: (§2) The hippocampus, cortex and plasma were collected and analyzed. Additional blood was collected and were analyzed for the full clinical chemistry profile. Urine was also collected and examined for glucose and total protein. […] The mean plasma, hippocampus, and cortex concentration at 1 hour are 19200 ng/mL, 674 ng/g, and 754 ng/g; respectively. The mean plasma, hippocampus, and cortex concentrations at 8 hours were 11250 ng/mL, 17725 ng/g, and 11875 ng/g, respectively. […] Blood urea nitrogen and creatinine levels were elevated.

[3] = Nephrotoxicity of non-deuterated D-serine at 300 mg/kg in male Sprague-Dawley rats (clinical chemistry, urine); type: in vivo; details: 300 mg/kg PO
Description: as §2

[4] = molecular target: T1, human NMDAR subunits GluN1 and GluN2A (Homo sapiens, UniProt Q05586); assay: NMDA receptor activation in automated patch clamp system (ScreenPatch), HEK293 cells; type: cell-based; details: 0.003 to 10 μM, Compound 100 versus D-serine
T1 construct: expressed in transfected cells; host or cells: HEK293
Description: Peak current and steady state current were measured. The activity at the NMDA receptor was indistinguishable for the two compounds.

[5] = Nephrotoxicity dose response of non-deuterated D-serine in male Sprague-Dawley rats, 30-300 mg/kg PO; type: in vivo; details: 24 hr samples at the 150 and 300 mg/kg doses, compared to control and reference values
Text: (§3) The pharmacokinetic profile of non-deuterated D-serine was investigated in male Sprague-Dawley rats. […] Plasma was collected and analyzed for the non-deuterated D-serine. Additional blood was collected and analyzed for the full clinical chemistry profile.

[6] = Nephrotoxicity comparison of Compound 100 and non-deuterated D-serine at doses from 150 mg/kg to 750 mg/kg; type: in vivo, rats; details: for changes in BUN or creatinine: doses from 150 mg/kg to 750 mg/kg PO
[7] = Pharmacokinetics dose response of non-deuterated D-serine in male Sprague-Dawley rats, 30-300 mg/kg PO; type: in vivo; details: rat, plasma; for Tmax: po
Text: as §3

[8] = Nephrotoxicity of Compound 100 and non-deuterated D-serine in male Sprague-Dawley rats, 150 mg/kg PO (BUN, creatinine, GGT); type: in vivo
Text: as §1

[9] = Pharmacokinetics of deuterated and non-deuterated D-serine in male Sprague Dawley rats, PO 10 mg/kg; type: in vivo; details: rat, 0.5% Methylcellulose, plasma
Description: Three rats were used for each group. Blood was collected at the following time points: for IV dosing: pre-dose, 0.05, 0.167, 0.5, 1, 2, 4, 6, 8 and 12 hours post-dose; for PO dosing: pre-dose, 0.25, 0.5, 1, 2, 4, 6, 8 and 12 hours post-dose PO. Urine was collected at pre-dose (minimum 12 hours), 0-6, 6-12 and 12-24 hours. Plasma samples were analyzed and quantified for dosed compound LC-MS/MS.

[10] = Randomized single dose crossover plasma PK of Compound 100 versus D-serine in healthy volunteers; type: in vivo, human; details: for Tmax / AUC(0-inf) / Cmax / half-life: human, plasma; for Tmax / AUC(0-inf) / Cmax / half-life / CL/F: single 0.25 g oral solution, fasted, N = 11; for AUC(0-inf) / Cmax / half-life / CL/F: mean
Description: Thirteen healthy volunteers between the ages of 18 to 55 were enrolled in the study. […] Period 1 dosing occurred within 14 days of screening. […] Similarly, in Period 2, the 2 subjects in the sentinel group received the alternate treatment after a 4-day washout and approximately 2 days prior to the remaining subjects receiving their Period 2 dose. […] Water consumption was restricted from 1 hour prior to dosing until 1 hour after dosing. Subjects fasted for approximately 3 hours after dosing and remained upright or semi-supine during this period. A meal was provided 3-4 hours after the dose. Meal times and contents were standardized until the last blood sample was collected for PK assessments. […] Plasma samples were stored in labeled tubes at approximately -80° C.

[11] = Safety and tolerability in single dose crossover study in healthy volunteers; type: in vivo, human; details: single 0.25 g oral dose
Text: Thirteen healthy volunteers between the ages of 18 to 55 were enrolled in the study.
Period 1 dosing occurred within 14 days of screening.

[12] = Pharmacokinetic profile of Compound 100 in male Sprague-Dawley rats: plasma, hippocampus and cortex concentration after 30 mg/kg PO; type: in vivo; details: fasted, 1 hr post dose, mean
Description: The mean plasma, hippocampus, and cortex concentrations at 1 hour were 19200 ng/mL, 674 ng/g, and 754 ng/g, respectively. The mean plasma, hippocampus, and cortex concentrations at 6 hours were 1780 ng/mL, 1385 ng/g, and 936 ng/g, respectively.

[13] = Safety and tolerability in SAD and MAD studies; type: in vivo, human
Description: (§4) The 0.5, 2, 3, and 4 g doses were evaluated under fasted conditions (after an overnight fast) while the 1 g dose was evaluated under both fasted and fed conditions (within 30 minutes of consumption of a meal) in a crossover design. […] Blood samples for PK analysis were obtained at several time points after dose administration. Safety assessments included monitoring of adverse events and clinical laboratory testing including monitoring of kidney function. Neurocognitive effects of CTP-692 using CogScreen® were also explored.

[14] = Multiple Ascending Dose (MAD) study plasma PK, 7 consecutive days; details: for AUC(0-inf) / AUC(0-t) / Cmax / Tmax: human, plasma, po
Text: The caloric content of the meal was in accordance with the FDA guidance for food-effect studies.

[15] = Single Ascending Dose (SAD) study plasma PK in healthy volunteers; type: in vivo, human; details: for half-life / AUC(0-inf) / Cmax / Tmax: human, plasma; for Tmax: median
Description: as §4, with “function.” for “function. Neurocognitive effects of CTP-692 using CogScreen® were also explored.”

[16] = dose escalation 150 mg/kg to 750 mg/kg
[17] = 150 mg/kg PO, fasted, mean (CV %)
[18] = po, 0.5 g, 0.5 g single oral dose, fasted, arithmetic mean
[19] = po, 1 g, 1 g (fed) single oral dose, arithmetic mean
[20] = po, 1 g, 1 g single oral dose, fasted, arithmetic mean
[21] = po, 2 g, 2 g single oral dose, fasted, arithmetic mean
[22] = po, 3 g, 3 g single oral dose, fasted, arithmetic mean
[23] = po, 4 g, 4 g single oral dose, fasted, arithmetic mean

NC(CO)C(=O)O (stereo in doubt) [Non-deuterated D-Serine, D-serine]
AUC(0-inf) ([1]; male, Sprague-Dawley, rat): 349 µg·h/mL | Cmax ([1]; male, Sprague-Dawley, rat, read-out: Cmax): 180000 ng/mL | concentration at 8 h ([2]; cortex, endogenous level not subtracted, read-out: Cortex concentration): 11900 ng/g | Tmax ([2]; fasted, plasma): 0.5 h | AUC(0-inf) ([2]; fasted, plasma, endogenous level subtracted): 500 µg·h/mL | concentration at 8 h ([2]; hippocampus, endogenous level not subtracted, read-out: Hippocampus concentration): 17700 ng/g | concentration at 8 h ([2]; plasma, endogenous level subtracted, read-out: Plasma concentration): 11200 ng/mL | Blood urea nitrogen level [3]: elevated | creatinine level [3]: elevated | glucose in urine [3]: presence of glucose was observed | activity at the NMDA receptor (peak current and steady state current) [4]: indistinguishable | creatinine level [5]: Elevated levels | gamma glutamyl transferase (GGT) level [5]: Elevated levels | urea nitrogen level [5]: Elevated levels | gross signs of nephrotoxicity [6, 16]: only observed in rats receiving non-deuterated D-serine | changes in BUN or creatinine [6]: increasingly elevated levels | AUC(0-inf) [7, 17]: 349 µg·h/mL | Cmax [7, 17]: 180000 ng/mL | Tmax ([7]; 30 mg/kg, 30 mg/kg PO, fasted, mean): 0.5 h | Tmax ([7]; 75 mg/kg, 75 mg/kg PO, fasted, mean): 0.5 h | Tmax ([7]; 100 mg/kg, 100 mg/kg PO, fasted, mean): 0.5 h | Tmax ([7]; 150 mg/kg, 150 mg/kg PO, fasted, mean): 0.3 h | Tmax ([7]; 300 mg/kg, 300 mg/kg PO, fasted, mean): 0.5 h | Tmax ([7]; 300 mg/kg, all doses 30, 75, 100, 150, and 300 mg/kg PO): 0.3 to 0.5 h | levels of biomarkers of nephrotoxicity [8]: caused an increase | blood urea nitrogen (BUN) level ([8]; 8 hr and 24 hr serum samples): Elevated levels | creatinine level ([8]; 24 hr serum samples): Elevated levels | gamma glutamyl transferase (GGT) level ([8]; 24 hr serum samples): Elevated levels | Tmax [9]: 0.417 h | Tmax [10]: 1 h | AUC(0-inf) [10]: 32.5 µg·h/mL | Cmax [10]: 4090 ng/mL | half-life [10]: 17.2 h | CL/F [10]: 7.9 L/h

[2H][C@@](N)(CO)C(=O)O [Compound 100, (2R)-2-amino-2-deutero-3-hydroxy-propanoic acid]
AUCinf [1]: 383 µg·h/mL | Cmax [1]: 186000 ng/mL | Tmax [1]: 0.667 h | adverse events related to Compound 100 [11]: mild headache (1 subject) and fatigue (2 subjects) | serious adverse events [11]: no serious adverse events were reported | tolerability [11]: generally well tolerated | Cortex concentration [12]: 754 ng/g | Hippocampus concentration [12]: 674 ng/g | Plasma concentration [12]: 19200 ng/mL | activity at the NMDA receptor (peak current and steady state current) [4]: indistinguishable | effects on kidney function (serum and urine kidney function parameters) ([13]; SAD and MAD studies): no apparent Compound 100-related effects on kidney function | effects on other clinical laboratory parameters ([13]; SAD and MAD studies): no clinically significant Compound 100-related effects | most common treatment-related adverse event ([13]; SAD and MAD studies): headache | neurocognitive effects (CogScreen) ([13]; SAD and MAD studies, exploratory): no evidence of adverse effects on neurocognitive functioning | tolerability ([13]; SAD and MAD studies, healthy volunteers): well-tolerated | Compound 100-related adverse events ([13]; highest once-daily dose of 4 g, both studies): no Compound 100-related adverse events were reported | Accumulation ([14]; following 7 consecutive days of administration): minimal to modest | dose-exposure relationship ([14]; following single and multiple doses (at Day 7)): linear | AUC(0-inf) ([14]; 1 g): 263 µg·h/mL | AUC(0-t) ([14]; 1 g): 175 µg·h/mL | Cmax ([14]; 1 g): 25300 ng/mL | Tmax ([14]; 1 g): 1.5 h | AUC(0-inf) ([14]; 2 g): 522 µg·h/mL | AUC(0-t) ([14]; 2 g): 333 µg·h/mL | Cmax ([14]; 2 g): 52000 ng/mL | Tmax ([14]; 2 g): 1 h | AUC(0-inf) ([14]; 4 g): 911 µg·h/mL | AUC(0-t) ([14]; 4 g): 539 µg·h/mL | Cmax ([14]; 4 g): 70800 ng/mL | Tmax ([14]; 4 g): 2 h | exposure as measured by AUC and Cmax, compared with non-deuterated D-serine [6, 16]: greater | gross signs of nephrotoxicity [6, 16]: not Compound 100 | changes in BUN or creatinine [6]: minimal changes | levels of biomarkers of nephrotoxicity [8]: did not increase | CL/F ([15]; 0.5 g single oral dose, fasted, arithmetic mean): 6.17 L/h | CL/F ([15]; 1 g (fed) single oral dose, arithmetic mean): 5.99 L/h | CL/F ([15]; 1 g single oral dose, fasted, arithmetic mean): 6.28 L/h | CL/F ([15]; 2 g single oral dose, fasted, arithmetic mean): 6.56 L/h | CL/F ([15]; 3 g single oral dose, fasted, arithmetic mean): 6.68 L/h | CL/F ([15]; 4 g single oral dose, fasted, arithmetic mean): 6.69 L/h | half-life ([15]; oral, SAD and MAD studies, human plasma, read-out: terminal t1/2 (converted)): ~19 h | AUC(0-inf) [15, 18]: 82.2 µg·h/mL | Cmax [15, 18]: 11000 ng/mL | half-life ([15]; po, 0.5 g, 0.5 g single oral dose, fasted, arithmetic mean, read-out: t1/2 (converted)): 15.9 h | Tmax ([15]; po, 0.5 g, 0.5 g single oral dose, fasted): 1 h | AUC(0-inf) [15, 19]: 173 µg·h/mL | Cmax [15, 19]: 15300 ng/mL | half-life ([15]; po, 1 g, 1 g (fed) single oral dose, arithmetic mean, read-out: t1/2 (converted)): 17.9 h | Tmax ([15]; po, 1 g, 1 g (fed) single oral dose): 2 h | AUC(0-inf) [15, 20]: 164 µg·h/mL | Cmax [15, 20]: 22300 ng/mL | half-life ([15]; po, 1 g, 1 g single oral dose, fasted, arithmetic mean, read-out: t1/2 (converted)): 19.2 h | Tmax ([15]; po, 1 g, 1 g single oral dose, fasted): 1 h | AUC(0-inf) [15, 21]: 315 µg·h/mL | Cmax [15, 21]: 46300 ng/mL | half-life ([15]; po, 2 g, 2 g single oral dose, fasted, arithmetic mean, read-out: t1/2 (converted)): 20.2 h | Tmax ([15]; po, 2 g, 2 g single oral dose, fasted): 1 h | AUC(0-inf) [15, 22]: 489 µg·h/mL | Cmax [15, 22]: 69100 ng/mL | half-life ([15]; po, 3 g, 3 g single oral dose, fasted, arithmetic mean, read-out: t1/2 (converted)): 20.6 h | Tmax ([15]; po, 3 g, 3 g single oral dose, fasted): 1 h | AUC(0-inf) [15, 23]: 618 µg·h/mL | Cmax [15, 23]: 96500 ng/mL | half-life ([15]; po, 4 g, 4 g single oral dose, fasted, arithmetic mean, read-out: t1/2 (converted)): 18.4 h | Tmax ([15]; po, 4 g, 4 g single oral dose, fasted): 1 h | Tmax [10]: 1.5 h | AUC(0-inf) [10]: 38.7 µg·h/mL | Cmax [10]: 4550 ng/mL | half-life [10]: 18.3 h | plasma exposure compared to D-serine ([10]; single 0.25 g oral dose): increased plasma exposure | CL/F [10]: 6.6 L/h
